Tested on: wild mustard algae strain
Assay: Efficacy of zinc and chelating agents against mustard algae (biomass over time by absorbance at 450 nm and visual assessment)
Format: cell-based
Settings: FIGS. 1-4
Description: A wild mustard algae strain isolated from a residential swimming pool was used in this study. This strain was re-suspended into sterile capped flasks of 250 ml capacity, containing 100 ml sterile Kratz/Meyers (KM) algae medium. Algae stock cultures were incubated at room temperature with a 16/8 hours on/off cycle white fluorescent lighting for approximately 2 weeks to obtain actively growing liquid cultures at the time of experiment.
Sterile KM medium was dispensed in 50 ml aliquots into sterile 125 ml capped Erlenmeyer flasks containing 40 glass beads of 6 mm diameter. Beads provided an increased surface area for algae to attach, since this alga develops as a loosely attached yellow growth on pool surfaces. Simultaneously, beads helped to homogenize samples by grinding at the time of sampling. An initial mustard algae culture of approximately 2×104 was set into each flask. […]
Algal cultures were challenged with 2 or 4 ppm zinc from zinc sulfate monohydrate combined with 2 or 10 ppm chelator. […] Biomass was measured over time by surrogate parameters: absorbance and visual assessment. Absorbance was measured at 450 nm using 1 inch cell in a spectrophotometer; visual assessment range was 0-3, where “0” equal to no growth and “3” equal to very heavy growth. The results of the optical readings were arithmetically averaged. […]

With `O=P1([O-])OP(=O)([O-])OP(=O)([O-])OP(=O)([O-])OP(=O)([O-])OP(=O)([O-])O1.[Na+].[Na+].[Na+].[Na+].[Na+].[Na+]` [SHMP, sodium hexametaphosphate] the “effect of chelating agent on the algaestatic activity of zinc ions” value (2 or 4 ppm zinc from zinc sulfate monohydrate combined with 2 or 10 ppm chelator, 3 weeks, compared with zinc alone) was “enhanced the performance of the algaestatic activity of zinc ions at all concentrations” and the “dependence of the enhancing effect on the ratio of zinc to SHMP” value (zinc to SHMP ratios 2:1 to 1:5) was “effect became greater with increasing amount of SHMP to a ratio of 1:5”.
